Measurements published in patent US8357710B2, “Bicyclic angiotensin II agonists” (Vicore Pharma AB, priority 2005, dated 2013).

What was measured:
[1] = molecular target: T1, AT2 receptor (Sus scrofa, UniProt A0A4X1W622); conditions: read-out: dissociation constant (Kd), AT2 receptor; Scatchard analysis, porcine myometrial membranes, [L]=0.057 nM
T1 sequence (A0A4X1W622 1-362): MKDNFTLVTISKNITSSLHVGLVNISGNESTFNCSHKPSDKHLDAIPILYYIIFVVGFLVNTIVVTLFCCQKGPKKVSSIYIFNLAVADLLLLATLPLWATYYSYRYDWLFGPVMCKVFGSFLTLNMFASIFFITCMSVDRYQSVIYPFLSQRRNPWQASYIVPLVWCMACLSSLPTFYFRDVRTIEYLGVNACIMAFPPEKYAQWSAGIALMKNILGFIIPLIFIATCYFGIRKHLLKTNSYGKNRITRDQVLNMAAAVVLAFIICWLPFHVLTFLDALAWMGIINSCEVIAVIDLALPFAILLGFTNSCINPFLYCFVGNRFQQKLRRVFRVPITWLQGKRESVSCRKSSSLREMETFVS
Protocol: Myometrial membranes were prepared from porcine uteri according to the method by Nielsen et al (Clin. Exp. Pharm. Phys. (1997) 24, 309). […] Samples were incubated at 25° C. for 1 h, and binding was terminated by filtration through Whatman GF/B glass-fiber filter sheets using a Brandel cell harvester. The filters were washed with 3×3 mL of Tris-HCl (pH 7.4) and transferred to tubes. The radioactivity was measured using a gamma counter. […] The binding data were best fitted with a one-site fit. All experiments were performed at least in triplicate.

[2] = test system: duodenal mucosal alkaline secretion; assay: Test C: duodenal mucosal alkaline secretion assay in barbiturate-anaesthetised rats; assay type: in vivo, rat; conditions: co-administration with title compounds of the Examples
From the text: Duodenal Mucosal Alkaline Secretion Assay
Compounds were exposed to the duodenal mucosa in barbiturate-anaesthetised rats prepared for in situ titration of duodenal mucosal alkaline secretion, according to the methodology described by Flemström et al in Am. J. Physiol. (1982) 243, G348.

Asp^1-Arg^2-Val^3-Tyr^4-Ile^5-His^6-Pro^7-Phe^8 [Ang II]
Kd [1]: 0.7 ± 0.1 nM

Cc1cc(Cn2cnc3c2C[C@@H](C(=O)O)N(C(=O)C(c2ccccc2)c2ccccc2)C3)ccc1N(C)C [PD123319]
effect of co-administration on the stimulation of mucosal alkalisation by the title compounds [2]: blocked
